The text below walks through data of patent publication US11957665B1, “Pharmaceutical composition for preventing or treating alopecia areata acting as a functional antagonist for S1PR1 and S1PR4” (NEXTGEN BIOSCIENCE CO., LTD., priority 2022, dated 2024).

Each structure is given as a SMILES string.

Data set [1] has as its target T1, hERG potassium ion channel (Homo sapiens, UniProt Q12809). The experiment in a line: Effect on hERG channel currents in HEK-293 cells overexpressing the hERG gene.
The target of data set [2] is T1, hERG potassium ion channel. The experiment in a line: cell-based.
For data set [3], the system named is beagle dogs. The experiment in a line: Effect on the cardiovascular system (heart rate, general symptoms) in beagle dogs. Type of data set: in vivo. As to the method:
NXC736 was orally administered to four unanesthetized and unrestrained male beagle dogs (ORIENTBIO Inc., Republic of Korea) implanted with remote transmitters. Afterwards, the heart rate of four beagle dogs was measured to evaluate the effect of NXC736 on the cardiovascular system, and the occurrence of abnormal symptoms was visually checked.
In this experiment, 4 beagle dogs were administered with 0.5% MC aqueous solution, which is an excipient, as a control substance, and the heart rate was measured, and after 1 week, NXC736 was administered at 12.5 mg/kg and the heart rate was measured, after 1 week, NXC736 was administered at 25 mg/kg and the heart rate was measured, and after 1 week, NXC736 was administered at 50 mg/kg and the heart rate was measured.
The heart rate of beagle dogs was specifically measured at 0 hours before administration of the test substance, and 0.5 hours, 1 hour, 2 hours, 3 hours, 4 hours, 6 hours, 8 hours, 12 hours, and 24 hours after administration of the test substance.

In data set [4] the test system is alopecia areata mouse model C3H/HeJ. The experiment in a line: Efficacy in suppressing alopecia areata in C3H/HeJ alopecia areata mouse model. Type of data set: in vivo, C3H/HeJ mice. As to the method:
The effectiveness of NXC736 for alopecia areata was evaluated using the alopecia areata mouse model C3H/HeJ (Jackson Lab, Saeron Bio). […] Conditions for the animal breeding room include a temperature of 23±3° C., relative humidity of 50±10%, and day and night maintained at 12-hour intervals, and experimental animals were raised in isolation breeding boxes (ThreeShine), and fed with food and drinking water for experimental animals ad libitum.
Mice were divided into two groups: the control group (sterilized distilled water administration group) and the NXC736 administration experimental group, five C3H/HeJ mice were randomly assigned per group, and from the time point lymph node cells were proliferated and injected into C3H/HeJ mice aged 10 to 16 weeks where no alopecia was induced, NXC736 was orally administered at 30 mg/kg for the NXC736 administration group and the same volume of sterilized distilled water was orally administered for the control group for 12 weeks once a day at the same time, respectively, and then the area of alopecia areata (AA) lesion area and disease free ratio were measured at intervals of 2 weeks.
The alopecia areata lesion area was measured using the Image J program (Version 1.44p) after taking a photograph.
The disease free ratio was defined as the proportion of mice administered the drug and not showing alopecia symptoms at a specified time point.

Data set [5] relates to T cells, CD4 T cells, CD8 T cells. The experiment in a line: Inhibitory effect of NXC736 on rat immune cells (flow cytometry of lymphocytes in peripheral blood and bone marrow). It is filed as in vivo, SD rats. Conditions: 10 mg/kg oral once, PB. How it is done:
To evaluate the effect of NXC736 on rat immune cells, NXC736 was administered orally once at 10 mg/kg/day to SD rats (Daehan BioLink (DBL), 3 control groups, and 15 test groups), and then measurements were performed by classifying into T cells, CD4 T cells, and CD8 T cells in peripheral bloodstream (PB) and bone marrow (BM) using the same antibodies as in Experimental Example 1. Specifically, measurements were made using a flow cytometer (FC500, Beckman coulter) at 0, 4, 8, 12, 24, 36, and 48 hours after administration of the test substance, the analysis was performed using FlowJo™ V10 (Flowjo, LLC), and the numbers of T cells, CD4 T cells, and CD8 T cells were expressed as % of control based on time 0.

Data set [6] shares this test system. The experiment in a line: Inhibitory effect of NXC736 on mouse immune cells (flow cytometry of lymphocytes in peripheral blood and bone marrow). It is filed as in vivo, C57BL/6 mice. The settings on record: 3 mg/kg oral once. As to the method: To determine whether NXC736, which acts on the S1P receptor, also has an effect on lymphocyte reduction, the effect of NXC736 on immune cells was evaluated. After oral administration of NXC736 once at 3 mg/kg/day to C57BL/6 mice (Daehan BioLink (DBL), 4 mice in the control group and 18 mice in the test group), the change in lymphocytes in peripheral blood (PB), bone marrow (BM) was measured by classifying into T cells (using anti-mouse CD3ε-PE/cyanine7 antibody), CD4 T cells (using anti-mouse CD4-FITC antibody), and CD8 T cells (using anti-mouse CD8a-PerCP antibody). Specifically, measurements were made using a flow cytometer (FC500, Beckman coulter) at 0, 4, 8, 12, 24, and 36 hours after administration of the test substance, the analysis was performed using FlowJo™ V10 (Flowjo, LLC), and the numbers of T cells, CD4 T cells, and CD8 T cells were expressed as % of control based on time 0.

T1 sequence (Q12809 whole entry): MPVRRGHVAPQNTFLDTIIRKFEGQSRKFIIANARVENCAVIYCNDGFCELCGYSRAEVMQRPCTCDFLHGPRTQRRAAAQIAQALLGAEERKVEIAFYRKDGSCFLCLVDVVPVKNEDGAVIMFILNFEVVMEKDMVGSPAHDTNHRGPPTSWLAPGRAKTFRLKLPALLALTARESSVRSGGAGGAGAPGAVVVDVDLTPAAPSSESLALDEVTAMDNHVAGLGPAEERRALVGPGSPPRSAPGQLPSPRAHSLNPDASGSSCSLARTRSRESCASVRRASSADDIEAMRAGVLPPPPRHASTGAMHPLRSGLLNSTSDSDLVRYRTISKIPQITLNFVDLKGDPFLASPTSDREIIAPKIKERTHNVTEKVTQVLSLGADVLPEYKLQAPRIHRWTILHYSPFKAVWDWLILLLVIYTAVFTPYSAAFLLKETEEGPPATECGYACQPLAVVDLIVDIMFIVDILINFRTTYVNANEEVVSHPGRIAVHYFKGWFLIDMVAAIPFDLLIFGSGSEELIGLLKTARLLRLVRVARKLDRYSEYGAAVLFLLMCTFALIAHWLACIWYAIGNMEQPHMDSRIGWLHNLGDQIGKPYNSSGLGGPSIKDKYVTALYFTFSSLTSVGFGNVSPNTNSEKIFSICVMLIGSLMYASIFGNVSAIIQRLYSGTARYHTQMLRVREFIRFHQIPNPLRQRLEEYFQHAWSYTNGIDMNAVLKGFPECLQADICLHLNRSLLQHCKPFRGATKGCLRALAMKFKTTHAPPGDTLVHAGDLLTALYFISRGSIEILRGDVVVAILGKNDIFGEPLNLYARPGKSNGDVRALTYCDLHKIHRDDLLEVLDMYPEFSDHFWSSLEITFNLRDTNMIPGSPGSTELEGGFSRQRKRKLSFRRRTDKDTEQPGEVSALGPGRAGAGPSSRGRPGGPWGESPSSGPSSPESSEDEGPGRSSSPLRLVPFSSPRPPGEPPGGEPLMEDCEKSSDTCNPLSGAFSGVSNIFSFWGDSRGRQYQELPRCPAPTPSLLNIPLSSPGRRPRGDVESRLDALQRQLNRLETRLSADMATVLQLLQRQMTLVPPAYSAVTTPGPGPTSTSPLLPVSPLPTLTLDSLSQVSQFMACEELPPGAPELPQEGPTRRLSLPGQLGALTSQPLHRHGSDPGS

As for `CCCCCCCCCCn1cc(CCC(N)(CO)CO)nn1` [NXC736, 2-amino-2-(2-(1-decyl-1H-1,2,3-triazol-4-yl)ethyl)propane-1,3-diol], in data set [1], the “hERG potassium channel activity, conclusion” value is “does not inhibit hERG potassium channel activity”. The same molecule returned an IC50 in data set [2] of 12.9 µM. For the same molecule, the heart rate result in data set [3] (oral doses of 12.5, 25 and 50 mg/kg, 0-24 hours) is “no change in heart rate”. In data set [3] (oral doses of 12.5, 25 or 50 mg/kg), the “general symptoms, naked eye” value is listed as “no abnormal symptoms were observed”. Also, the “time to observe 100% alopecia areata (disease free ratio)” value in data set [4] (30 mg/kg oral once a day) is recorded as “up to 84 days”. Further, the “alopecia areata (AA) lesion area” value in data set [4] (30 mg/kg oral once a day for 12 weeks) is recorded as “approximately 10%”. For the same molecule, in data set [5], the “time for which the immunosuppressive effect was maintained” value is “up to 24 hours”. Also, the “time until which the decrease of T cells in PB was maintained” value in data set [6] was not above 12 h. Moreover, in data set [6] (at 36 hours), the “T cells in PB after recovery (% of control)” value is on record as 88.9%.
